This note sets out measurements from ChEMBL document CHEMBL1201862, “PubChem BioAssay data set” (2004).

SMILES strings stand for the structures.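 Grown in 96-well plates, cells were treated for 48 hours with each compound at five concentrations. Insufficient inhibition: endpoint recorded as highest concentration tested. At the GI50, growth is halved.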 Calls of active or inactive are those of the source. Cut-off read from the data, not from the text of the source: active = GI50 up to about 1.1 µM and inactive = higher. Where only a bound is given, the exact number is not on record here.

Test systems include PC-3; A549; MDA-MB-435; MDA-MB-231; Hs-578T; ACHN; T47D; BT-549; CAKI-1; K562; EKVX; DU-145; UO-31; RPMI-8226; SR; SNB-75; HOP-92; HOP-62; COLO 205; SK-MEL-28.
What all share (assay): growth of human tumour cells (NCI), 48 h

Turning to `CN1CCN(CCCCNc2cc3c4ccccc4c(NCCCCN4CCN(C)CC4)cc3c3ccccc23)CC1`, the GI50 in the experiment on PC-3 is 3.31 µM (inactive); in the experiment on A549 it was 1.37 µM (inactive); with MDA-MB-435, 0.184 µM (active); with MDA-MB-231, 1.62 µM (inactive); with Hs-578T it was 2.38 µM (inactive); with ACHN, 4.06 µM (inactive). The GI50 in the experiment with T47D was 18.6 µM (inactive); in the experiment on BT-549, 5.89 µM (inactive); with CAKI-1 it was 9.77 µM (inactive); in the experiment on K562, 1.57 µM (inactive); in the experiment with EKVX, 7.43 µM (inactive); with DU-145, 1.67 µM (inactive). In addition, the GI50 with UO-31 is 2.69 µM (inactive); in the experiment with RPMI-8226 it was 1.38 µM (inactive); in the experiment with SR, 0.443 µM (active); in the experiment with SNB-75 it was 3.38 µM (inactive); in the experiment with HOP-92, 6.61 µM (inactive); in the experiment on HOP-62 it was 3.59 µM (inactive). The GI50 in the experiment on COLO 205 was 2.36 µM (inactive); in the experiment on SK-MEL-28, 7.67 µM (inactive).

With `Oc1c(C(O)(c2ccccc2)c2ccc3ccccc3c2O)ccc2ccccc12`, the GI50 with PC-3 is 8.26 µM (inactive); in the experiment with A549, 12.1 µM (inactive); in the experiment on MDA-MB-435, 14.1 µM (inactive); in the experiment on MDA-MB-231, 13.6 µM (inactive); in the experiment with Hs-578T, 7.03 µM (inactive); with ACHN, 10.5 µM (inactive). Besides, the GI50 with T47D was 2.96 µM (inactive); in the experiment with BT-549, 17.7 µM (inactive); in the experiment with CAKI-1, 15 µM (inactive); in the experiment on K562, 2.88 µM (inactive); in the experiment on EKVX, 11.4 µM (inactive); in the experiment on DU-145, 15.6 µM (inactive). In addition, the GI50 was 11.2 µM (inactive) in the experiment with UO-31; 2.11 µM (inactive) in the experiment with RPMI-8226; 1.26 µM (inactive) in the experiment on SR; 14.7 µM (inactive) with SNB-75; 9.1 µM (inactive) with HOP-92; 15 µM (inactive) in the experiment on HOP-62. Also, the GI50 in the experiment with COLO 205 was 17.2 µM (inactive); with SK-MEL-28, 14.7 µM (inactive).

`Oc1ccc(Nc2nc(Cl)c3nc[nH]c3n2)cc1`: the GI50 in the experiment on PC-3 was > 100 µM (inactive); in the experiment on A549, > 100 µM (inactive); with MDA-MB-435 it was > 100 µM (inactive); with MDA-MB-231, > 100 µM (inactive); with Hs-578T, > 100 µM (inactive); in the experiment on ACHN it was 93.1 µM (inactive). In addition, the GI50 in the experiment with T47D is 61.9 µM (inactive); in the experiment with BT-549, > 100 µM (inactive); in the experiment on CAKI-1 it was 61.9 µM (inactive); in the experiment on K562, 50.8 µM (inactive); in the experiment on EKVX it was > 100 µM (inactive); in the experiment with DU-145 it was > 100 µM (inactive). Besides, the GI50 was > 100 µM (inactive) in the experiment on UO-31; 61.4 µM (inactive) in the experiment with RPMI-8226; 28.1 µM (inactive) with SR; > 100 µM (inactive) in the experiment on SNB-75; 14 µM (inactive) with HOP-92; > 100 µM (inactive) with HOP-62. The GI50 in the experiment on COLO 205 is > 100 µM (inactive).

For the molecule `CCOc1ccc(Nc2nc(N)nc(N)c2N)cc1`, the GI50 with PC-3 was 45.3 µM (inactive); with A549, 45.2 µM (inactive); in the experiment on MDA-MB-435, 25.1 µM (inactive); in the experiment on MDA-MB-231 it was 31.8 µM (inactive); in the experiment on Hs-578T, 18.2 µM (inactive); in the experiment with ACHN it was 38.7 µM (inactive). Moreover, the GI50 was 21.4 µM (inactive) in the experiment on T47D; 23.2 µM (inactive) with BT-549; 28.6 µM (inactive) in the experiment with CAKI-1; 13.6 µM (inactive) in the experiment on K562; > 100 µM (inactive) in the experiment with EKVX; > 100 µM (inactive) in the experiment with DU-145. The GI50 was 11 µM (inactive) in the experiment on UO-31; 12.1 µM (inactive) with RPMI-8226; 0.472 µM (active) in the experiment on SR; 20.6 µM (inactive) with SNB-75; 50.9 µM (inactive) in the experiment with HOP-92; 24.7 µM (inactive) in the experiment on HOP-62. In addition, the results for the GI50 in the experiment with COLO 205 and in the experiment with SK-MEL-28 were 27.9 µM (inactive) and > 100 µM (inactive), respectively.

As to `O=C(O)CCc1nc2c(n1-c1ccccc1)C(=O)c1ccccc1C2=O`, the GI50 with PC-3 is > 100 µM (inactive); in the experiment with A549 it was > 100 µM (inactive); in the experiment on MDA-MB-435, 87.5 µM (inactive); in the experiment with MDA-MB-231, > 100 µM (inactive); with Hs-578T it was > 100 µM (inactive); with ACHN, > 100 µM (inactive). The GI50 in the experiment on T47D was 64.7 µM (inactive); with BT-549, > 100 µM (inactive); in the experiment on CAKI-1 it was > 100 µM (inactive); with K562 it was > 100 µM (inactive); with EKVX it was > 100 µM (inactive); in the experiment on DU-145, > 100 µM (inactive). Also, the GI50 was > 100 µM (inactive) with UO-31; > 100 µM (inactive) in the experiment on RPMI-8226; > 100 µM (inactive) in the experiment with SR; > 100 µM (inactive) in the experiment with SNB-75; 0.0226 µM (active) in the experiment on HOP-92; > 100 µM (inactive) in the experiment on HOP-62. In addition, the GI50 in the experiment on COLO 205 and in the experiment with SK-MEL-28 was > 100 µM (inactive) throughout.

With `O=C1CSC(c2ccccc2[N+](=O)[O-])N1c1ccc(-n2c(-c3ccccc3)nc3ccccc3c2=O)cc1` (configuration not stated), the GI50 was 35.7 µM (inactive) with PC-3; 63.2 µM (inactive) with A549; > 100 µM (inactive) in the experiment with MDA-MB-435; 46.3 µM (inactive) in the experiment with MDA-MB-231; 20.8 µM (inactive) with Hs-578T; 61 µM (inactive) in the experiment on ACHN. Moreover, the GI50 with T47D is 23.7 µM (inactive); in the experiment on BT-549 it was 57.7 µM (inactive); in the experiment on CAKI-1, 67.9 µM (inactive); in the experiment on K562, 79.6 µM (inactive); with EKVX it was 47.4 µM (inactive); in the experiment on DU-145, > 100 µM (inactive). Besides, the GI50 with UO-31 was 13.9 µM (inactive); in the experiment with RPMI-8226 it was > 100 µM (inactive); in the experiment on SR it was 19.8 µM (inactive); with SNB-75, 19.5 µM (inactive); with HOP-92 it was 27 µM (inactive); in the experiment with HOP-62, 21.3 µM (inactive). The GI50 is 99.1 µM (inactive) in the experiment with COLO 205 and > 100 µM (inactive) in the experiment with SK-MEL-28.

As for `COCC[N+](CCNC(=O)c1cccc2c(N)c3cccc(C)c3nc12)(CCOC)Cc1ccc([N+](=O)[O-])cc1`, the GI50 in the experiment with PC-3 is 9.53 µM (inactive); with A549, 13.5 µM (inactive); in the experiment on MDA-MB-435, 30 µM (inactive); in the experiment with MDA-MB-231, 28.1 µM (inactive); with Hs-578T, 10.8 µM (inactive); with ACHN, 32.4 µM (inactive). In addition, the GI50 is 18.1 µM (inactive) in the experiment with T47D; 21.8 µM (inactive) with BT-549; > 100 µM (inactive) in the experiment on CAKI-1; 24.2 µM (inactive) in the experiment on EKVX; 17 µM (inactive) with DU-145; 63 µM (inactive) in the experiment on UO-31. The GI50 is 5.6 µM (inactive) in the experiment with RPMI-8226; 2.99 µM (inactive) in the experiment on SR; 27 µM (inactive) in the experiment with SNB-75; 29 µM (inactive) in the experiment with HOP-92; 31.8 µM (inactive) in the experiment on HOP-62; 16.1 µM (inactive) in the experiment on COLO 205. The GI50 in the experiment with SK-MEL-28 was 13.8 µM (inactive).

In the case of `CC(=O)c1sc2c(c1OC(=O)c1ccco1)c(=O)n(-c1ccccc1)c(=S)n2-c1ccccc1`, the GI50 with PC-3 is 16.9 µM (inactive); in the experiment on A549, 38.2 µM (inactive); in the experiment on MDA-MB-435 it was 15 µM (inactive); in the experiment on MDA-MB-231, 21.5 µM (inactive); in the experiment with Hs-578T, 2.28 µM (inactive); with T47D, 13 µM (inactive). In addition, the GI50 is 18.1 µM (inactive) in the experiment on BT-549; 32.5 µM (inactive) in the experiment on CAKI-1; 30.8 µM (inactive) in the experiment on K562; 26.4 µM (inactive) with EKVX; 26.8 µM (inactive) with DU-145; 20.3 µM (inactive) in the experiment with UO-31. Further, the GI50 with RPMI-8226 was 4.89 µM (inactive); in the experiment with SR, 29.4 µM (inactive); in the experiment with SNB-75, 21.8 µM (inactive); with HOP-92, 5.43 µM (inactive); in the experiment on HOP-62 it was 25.1 µM (inactive); with COLO 205 it was 17.4 µM (inactive). Besides, the GI50 with SK-MEL-28 was 23.8 µM (inactive).

Turning to `Cc1ncc([N+](=O)[O-])n1CCNC(=O)CCC(=O)NCCCn1ccnc1[N+](=O)[O-]`, the GI50 in the experiment with PC-3, with A549, in the experiment with MDA-MB-435, in the experiment with MDA-MB-231, in the experiment with Hs-578T and in the experiment with ACHN was > 100 µM (inactive) throughout. Moreover, the GI50 in the experiment with T47D, in the experiment on BT-549, in the experiment with CAKI-1, with K562, in the experiment on EKVX and in the experiment on DU-145 was > 100 µM (inactive) in each case. Also, the GI50 in the experiment on UO-31 is > 100 µM (inactive); with RPMI-8226, > 100 µM (inactive); in the experiment with SR, > 100 µM (inactive); with SNB-75, > 100 µM (inactive); with HOP-92, 54 µM (inactive); in the experiment on HOP-62, > 100 µM (inactive). Moreover, the GI50 with COLO 205 and in the experiment with SK-MEL-28 was > 100 µM (inactive) in each case.

In the case of `O=C(O)[C@H]1NC[C@@H]2ON=C(Br)[C@@H]21`, the GI50 in the experiment with PC-3, in the experiment with A549, in the experiment with MDA-MB-435, with MDA-MB-231, in the experiment on Hs-578T and in the experiment on ACHN was > 100 µM (inactive) in each case. The GI50 in the experiment on T47D, with BT-549, with CAKI-1, in the experiment on K562, in the experiment with EKVX and in the experiment on DU-145 was > 100 µM (inactive) each time. Moreover, the GI50 in the experiment with UO-31, in the experiment on RPMI-8226, in the experiment on SR, in the experiment with SNB-75, with HOP-92 and with HOP-62 was > 100 µM (inactive) each time. For the same molecule, the GI50 in the experiment with COLO 205 and in the experiment on SK-MEL-28 was > 100 µM (inactive) in each case.
